Assay results taken from paper PMC1079881, “Differential modulation of microglia superoxide anion and thromboxane B2 generation by the marine manzamines” (BMC Pharmacology, 2005).
Like-named read-outs stand apart in the source and are kept apart here.

Experiments:
[1] = tested on: LPS-activated rat neonatal microglia; test: PMA-stimulated TXB2 generation by LPS-activated rat neonatal microglia (immunoassay); format: cell-based; settings: for IC50 / inhibition at 10 µM: Rattus norvegicus, Microglia; for IC50: PMA 1 μM, 70 min, LPS 0.3 ng/mL 17 h, manzamine added 15 min before; for PMA-stimulated TXB2 release, % of control / PMA-stimulated TXB2 released / inhibition at 10 µM: at 10 μM; for inhibition at 10 µM: read-out: maximum inhibition of PMA-stimulated TXB2 generation
Description: (§1) All experiments were performed with adherence to the National Institutes of Health guidelines on the use of experimental animals and with protocols approved by Midwestern University's Research and Animal Care Committee. To isolate rat neonatal microglia, cerebral cortices of 1–2 day-old Sprague-Dawley rats purchased from Harlan (Indianapolis, IN) were surgically removed and placed in cold DMEM + 10% FBS + 120 U/ml P and 12 μg/ml S, the meninges carefully removed, and brain tissue minced and dissociated with trypsin-EDTA at 36°C for 3–5 min. The mixed astroglial cell suspension was plated in either 75- or 162-cm^2 vented cell culture flasks with DMEM medium supplemented with 10% FBS + 120 U/ml P + 12 μg/ml S and grown in a humidified 5% CO2 incubator at 36°C for 12–14 days. […] Microglia were characterized as described earlier.
(§2) To study the effects of manzamines A, B, C, D, E and F on the generation of TXB2 and O2^-, rat neonatal microglia (2 × 10^5 cells/24-well cell culture clusters) were treated to the following protocol. Seventeen hours prior to the experiments, microglia cells were treated with LPS (0.3 ng/ml) in a final volume of 1 ml of DMEM supplemented with 10% FBS + 120 U/ml P + 12 μg/ml. […] O2^-, TXB2 and lactate dehydrogenase (LDH) release were assayed as described below.
(§3) Following the incubation of LPS-activated microglia with HBSS, manzamines or vehicle as explained above, PMA- (1 μM) or OPZ- (0.5 mg/mL)triggered TXB2 generation in the culture supernatants was measured using immunoassays (Cayman Chemical, Ann Arbor, MI) as indicated by the manufacturer's protocol. Results were expressed as pg/mL produced after 70 min of PMA or OPZ stimulation.

[2] = tested on: LPS-activated rat neonatal microglia; test: OPZ-stimulated TXB2 generation by LPS-activated rat neonatal microglia (immunoassay); format: cell-based; settings: for IC50 / inhibition at 10 µM: Rattus norvegicus, Microglia; for IC50: OPZ 0.5 mg/mL, 70 min, LPS 0.3 ng/mL 17 h; for inhibition at 10 µM / OPZ-stimulated TXB2 released / OPZ-stimulated TXB2 generation, % of control: at 10 μM
Description: as §1, §2, §3

[3] = tested on: LPS-activated rat neonatal microglia; test: PMA-stimulated O2^- generation by LPS-activated rat neonatal microglia (SOD-inhibitable FCC reduction); format: cell-based; settings: for IC50 / inhibition at 10 µM: Rattus norvegicus, Microglia; for IC50: PMA 1 μM, 70 min, LPS 0.3 ng/mL 17 h
Description: as §1, §2
(§4) O2^- generation was determined by the SOD-inhibitable reduction of FCC [23]. […] All experimental treatments were run in triplicate and in a final volume of 1 ml. Changes in FCC absorbance were measured at 550 nm using a Beckman DU-650 spectrophotometer.

[4] = tested on: LPS-activated rat neonatal microglia; test: OPZ-stimulated O2^- generation by LPS-activated rat neonatal microglia (SOD-inhibitable FCC reduction); format: cell-based; settings: for IC50: OPZ 0.5 mg/mL, 70 min, LPS 0.3 ng/mL 17 h; for effect on OPZ-stimulated O2^- generation: even at 10 μM
Description: as §1, §2, §4

[5] = biological target: hypoxanthine-xanthine oxidase system (Homo sapiens, UniProt P47989); test: Cell-free O2^- generation by hypoxanthine-xanthine oxidase system (scavenging test); format: biochemical; settings: for O2^- generated by hypoxanthine-xanthine oxidase system: control (DMSO) 12 ± 1.1, test concentration not given
Sequence of hypoxanthine-xanthine oxidase system (P47989 whole entry): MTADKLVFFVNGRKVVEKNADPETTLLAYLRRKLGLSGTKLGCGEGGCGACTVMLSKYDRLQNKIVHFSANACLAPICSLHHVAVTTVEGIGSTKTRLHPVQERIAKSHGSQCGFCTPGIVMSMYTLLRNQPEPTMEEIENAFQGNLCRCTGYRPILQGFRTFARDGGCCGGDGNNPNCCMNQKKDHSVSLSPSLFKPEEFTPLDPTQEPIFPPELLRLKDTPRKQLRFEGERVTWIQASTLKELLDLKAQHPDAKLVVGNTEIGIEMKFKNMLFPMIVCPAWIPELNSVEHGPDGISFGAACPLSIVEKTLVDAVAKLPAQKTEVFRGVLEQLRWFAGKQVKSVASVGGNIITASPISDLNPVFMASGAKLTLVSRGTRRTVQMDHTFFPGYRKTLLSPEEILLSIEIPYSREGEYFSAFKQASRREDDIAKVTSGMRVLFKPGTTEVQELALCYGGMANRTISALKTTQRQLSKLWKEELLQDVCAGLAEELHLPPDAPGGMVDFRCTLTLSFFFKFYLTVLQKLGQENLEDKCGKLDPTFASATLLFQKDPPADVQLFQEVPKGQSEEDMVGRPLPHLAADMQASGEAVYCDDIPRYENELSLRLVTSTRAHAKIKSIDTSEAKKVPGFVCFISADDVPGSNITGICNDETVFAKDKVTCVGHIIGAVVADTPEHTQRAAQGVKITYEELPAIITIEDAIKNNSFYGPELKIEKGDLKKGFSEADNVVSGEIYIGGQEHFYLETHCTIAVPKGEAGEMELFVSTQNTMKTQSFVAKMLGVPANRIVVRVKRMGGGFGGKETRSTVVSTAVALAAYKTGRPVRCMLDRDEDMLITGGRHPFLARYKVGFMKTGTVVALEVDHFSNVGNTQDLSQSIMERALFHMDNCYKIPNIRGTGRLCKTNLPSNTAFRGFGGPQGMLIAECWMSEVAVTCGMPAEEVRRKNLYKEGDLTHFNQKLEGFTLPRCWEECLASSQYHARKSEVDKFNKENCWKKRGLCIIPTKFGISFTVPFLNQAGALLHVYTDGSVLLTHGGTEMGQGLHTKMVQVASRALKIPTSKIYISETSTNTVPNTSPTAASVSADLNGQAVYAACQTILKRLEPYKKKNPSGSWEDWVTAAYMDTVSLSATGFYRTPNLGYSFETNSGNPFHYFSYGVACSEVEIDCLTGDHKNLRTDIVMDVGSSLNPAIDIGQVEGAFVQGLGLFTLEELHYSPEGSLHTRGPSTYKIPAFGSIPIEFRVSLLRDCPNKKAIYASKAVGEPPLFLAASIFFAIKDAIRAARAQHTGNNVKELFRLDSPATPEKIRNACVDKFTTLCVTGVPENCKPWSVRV
Description: A standard hypoxanthine-xanthine oxidase system was used as a cell-free source of O2^-. O2^- was generated by incubation of purified xanthine oxidase (0.02 Units/ml) with hypoxanthine (1.5 mM) at 37°C [21]. O2^- formation was assessed spectrophotometrically as the increase in absorbance at 550 nm associated with the SOD (30 U/mL)-inhibitable reduction FCC (50 μM) as described above for rat microglia O2^- generation and expressed in nmoles/30 minutes.

activated rat microglia = settings: read-out: IC50, PMA-stimulated O2^- generation in microglia; cited from earlier work
[6] = parameters: method as in PMID 10817722; settings: cited from earlier work
[7] = tested on: LPS-induced microglia PGE2 synthesis; settings: cited from earlier work
[8] = tested on: LPS-activated rat neonatal microglia; test: LDH release (cytotoxicity) from LPS-activated rat neonatal microglia; format: cell-based
Description: as §2, with “μg/ml. Thereafter the media was removed and replaced with 1 ml warm HBSS, one of the manzamines (0.1–10 μM final concentration) or vehicle (DMSO) was added, and the microglia incubated for fifteen minutes in a humidified 5% CO2 incubator at 35.9°C. After the fifteen minute preincubation period with either manzamines or vehicle, PMA (1 μM) or OPZ (0.5 mg/mL) was added and microglia incubated for 70 minutes in a humidified 5% CO2 incubator at 35.9°C in the presence of the manzamines or vehicle.” for “μg/ml.”
Lactate dehydrogenase (LDH) release from microglia was determined spectrophotometrically as described elsewhere. Microglia LDH release was expressed as a percentage of total LDH. Total LDH resulted from 0.1% Triton X-100-lysed microglia cells (intracellular LDH) plus LDH released to the extracellular medium.

[9] = read-out: apparent IC50, LPS-induced microglia PGE2 synthesis

Molecule	IC50 [1] [µM]	PMA-stimulated TXB2 released [1]	IC50 [2] [µM]	OPZ-stimulated TXB2 released [2]	IC50 [3] [µM]	IC50 ([4]; Rattus norvegicus, Microglia) [µM]	O2^- generated by hypoxanthine-xanthine oxidase system [5] [nmoles/30 min]	further results
O=C1CCCN2[C@@H](CC1)C[C@]13CN4CCCC/C=C\CC[C@](O)(C=C(c5nccc6c5[nH]c5c(O)cccc56)C1CC4)[C@H]23 (stereo partly drawn) [MZF, manzamine F]	> 10	3,202 ± 1,139 pg of TXB2 per 200,000 microglia per 70 min	> 10	3,317 ± 121 pg of TXB2 per 200,000 microglia per 70 min	> 10	> 10	20.1 ± 3.6	PMA-stimulated TXB2 release, % of control [1]: 104.1 ± 24.7 % of control; inhibition at 10 µM [2]: 26.2%; PMA-stimulated O2^- release, % of control ([3]; at 10 μM): 113 ± 14.5 % of control; PMA-stimulated O2^- released ([3]; at 10 μM): 12.8 ± 1.6 nmol of O2^- per 200,000 microglia per 70 min; inhibition at 10 µM ([4]; Rattus norvegicus, Microglia, at 10 μM, non-statistically significant): 15.7%
C=CCN1C[C@H](C(=O)N(CCCN(C)C)C(=O)NCC)C[C@@H]2c3cccc4[nH]cc(c34)C[C@H]21 [cabergoline]	–	–	–	–	–	–	–	IC50 (activated rat microglia): > 100 µM
C1=C\CCCCN(CCc2nccc3c2[nH]c2ccccc23)CCCC/1 [MZC, manzamine C]	2.98	677 ± 293 pg of TXB2 per 200,000 microglia per 70 min	3.34	1,345 ± 160 pg of TXB2 per 200,000 microglia per 70 min	3.43	9.3	20.7 ± 3.1	PMA-stimulated TXB2 release, % of control [1]: 19.6 % of control; OPZ-stimulated TXB2 generation, % of control [2]: 29.8 % of control; PMA-stimulated O2^- release, % of control ([3]; at 10 μM): 36.1 % of control; PMA-stimulated O2^- released ([3]; at 10 μM): 3.7 ± 2.2 nmol of O2^- per 200,000 microglia per 70 min; OPZ-stimulated O2^- generation, % of control ([4]; at 10 μM): 41.6 % of control; OPZ-stimulated O2^- released ([4]; at 10 μM): 3.9 ± 0.3 O2^- nmol per 200,000 microglia per 70 min
O[C@]12C=C(c3nccc4c3[nH]c3ccccc34)[C@@H]3CCN(CCCC/C=C\CC1)C[C@@]31C[C@@H]3/C=C\CCCCN3[C@H]12 [MZA, manzamine A]	< 0.016	78.3 ± 45 pg of TXB2 per 200,000 microglia per 70 min	3.16	1,927 ± 474 pg of TXB2 per 200,000 microglia per 70 min	0.1	> 10	15.3 ± 4.4	inhibition at 10 µM [1]: 95.5%; inhibition at 10 µM [2]: 58%; inhibition at 10 µM ([3]; at 10 μM): 55.9 ± 6.1%; OPZ-stimulated O2^- released ([4]; at 10 μM): 9.5 ± 1 O2^- nmol per 200,000 microglia per 70 min; effect on OPZ-stimulated O2^- generation [4]: did not appear to affect; in vivo toxicity [6]: lack of significant in vivo toxicity
O=C1CCCN2[C@@H](CC1)C[C@]13CN4CCCC/C=C\CC[C@](O)(C=C(c5nccc6c5[nH]c5ccccc56)[C@@H]1CC4)[C@H]23 [MZE, manzamine E]	> 10	1,614 ± 628 pg of TXB2 per 200,000 microglia per 70 min	> 10	2,594 ± 646 pg of TXB2 per 200,000 microglia per 70 min	> 10	> 10	16.3 ± 2.2	inhibition at 10 µM [1]: 49.4%; inhibition at 10 µM [2]: 43.1%; inhibition at 10 µM ([3]; at 10 μM): 26.3%; PMA-stimulated O2^- released ([3]; at 10 μM): 8.5 ± 2.1 nmol of O2^- per 200,000 microglia per 70 min; effect on OPZ-stimulated O2^- generation [4]: did not affect
CC(C(=O)O)c1ccc(-c2ccccc2)c(F)c1 (stereo not drawn) [flurbiprofen]	–	–	–	–	–	–	–	IC50 ([7]; COX-1 inhibitor, read-out: apparent IC50, LPS-induced microglia PGE2 synthesis): 0.1 µM
O[C@]12C=C(C3NCCc4c3[nH]c3ccccc43)[C@@H]3CCN(CCCC/C=C\CC1)C[C@@]31C[C@@H]3/C=C\CCCCN3[C@H]12 (stereo partly drawn) [MZD, manzamine D]	0.23	611 ± 342 pg of TXB2 per 200,000 microglia per 70 min	> 10	3,613 ± 469 pg of TXB2 per 200,000 microglia per 70 min	< 0.1	> 10	22.2 ± 2	PMA-stimulated TXB2 release, % of control [1]: 18.8 % of control; OPZ-stimulated TXB2 generation, % of control [2]: 79.9 % of control; PMA-stimulated O2^- release, % of control ([3]; at 0.1 μM): 14 % of control; PMA-stimulated O2^- released ([3]; at 0.1 μM): 0.7 ± 0.7 nmol of O2^- per 200,000 microglia per 70 min; effect on OPZ-stimulated O2^- generation [4]: did not affect
CCCn1cnc2c1c(=O)n(CCCCC(C)=O)c(=O)n2C [propentofylline]	–	–	–	–	–	–	–	IC50 (activated rat microglia): > 100 µM
CO[C@]12C[C@@H](COC(=O)c3cncc(Br)c3)CN(C)[C@@H]1Cc1cn(C)c3cccc2c13 [nicergoline]	–	–	–	–	–	–	–	IC50 (activated rat microglia): 10 to 15 µM
CC(=O)Oc1ccccc1C(=O)O [acetylsalicylic acid]	–	–	–	–	–	–	–	IC50 ([7]; COX-1 inhibitor, read-out: IC50, LPS-induced microglia PGE2 synthesis): 3.12 to 10 µM
CS(=O)(=O)Nc1ccc([N+](=O)[O-])cc1OC1CCCCC1 [NS-398]	–	–	–	–	–	–	–	IC50 [7, 9]: 0.001 to 0.005 µM
C1=C\CC[C@]23CN4CCCC/C=C\CC[C@@]5(O[C@H]5[C@@H](c5nccc6c5[nH]c5ccccc56)[C@@H]2CC4)[C@@H]3NCCCC/1 [MZB, manzamine B]	1.6	546.3 ± 281 pg of TXB2 per 200,000 microglia per 70 min	1.44	1,160 ± 207 pg of TXB2 per 200,000 microglia per 70 min	3.16	4.17	15.3 ± 2.4	PMA-stimulated TXB2 release, % of control [1]: 15.5 % of control; OPZ-stimulated TXB2 generation, % of control [2]: 25.6 % of control; PMA-stimulated O2^- release, % of control ([3]; at 10 μM): 20 % of control; PMA-stimulated O2^- released ([3]; at 10 μM): 2.14 ± 2.14 nmol of O2^- per 200,000 microglia per 70 min; OPZ-stimulated O2^- generation, % of control ([4]; at 10 μM): 16.5 % of control; OPZ-stimulated O2^- released ([4]; at 10 μM): 1.5 ± 0.7 O2^- nmol per 200,000 microglia per 70 min; concentrations cytotoxic to neonatal brain microglia [8]: above 1 μM
COc1ccc2c(c1)c(CC(=O)O)c(C)n2C(=O)c1ccc(Cl)cc1 [indomethacin]	–	–	–	–	–	–	–	IC50 [7, 9]: 0.001 µM
superoxide dismutase: superoxide dismutase (from bovine liver), Sigma	–	–	–	–	–	–	–	effect on hypoxanthine-xanthine oxidase O2^- generation [5]: abolished
